Data: US12338220B2, “Antiviral pyrazolopiridinone compounds” (Novartis AG, priority 2019, dated 2025)
Like-named read-outs stand apart in the source and are kept apart here.

How the values were obtained:
[1] = molecular target: CMV-polymerase (Human cytomegalovirus (strain AD169) (HHV-5) (Human herpesvirus 5), UniProt P08546); assay: biochemical
[2] = test system: CMV; assay: microbe, parasite or virus in culture; type: cell-based; conditions: Human betaherpesvirus 5, 72 h, read-out: CMV-Luc Cellular EC50, NN-NHDF cells, MOI 1, 72 hrs
[3] = read-out: CMV-polymerase Biochemical IC50
[4] = CMV-polymerase Biochemical IC50

Cn1nc(C(=O)NCc2ccc(C#N)cc2)c2c1C(=O)N(CC1(S(=O)(=O)N3CCC(N)CC3)CC1)CC2 [Example 138, 6-((1-((4-Aminopiperidin-1-yl)sulfonyl)cyclopropyl)methyl)-N-(4-cyanobenzyl)-1-methyl-7-oxo-4,5,6,7-tetrahydro-1H-pyrazolo[3,4-c]pyridine-3-carboxamide]
IC50 [1, 3]: 21 nM
EC50 [2]: 127 nM

C[C@H](N)C(=O)NCC(C)(C)S(=O)(=O)C1(CN2CCc3c(C(=O)NCc4ccc(C#N)cc4)nn(C)c3C2=O)CC1 [Example 76, (S)-6-((1-((1-(2-Aminopropanamido)-2-methylpropan-2-yl)sulfonyl)cyclopropyl)methyl)-N-(4-cyanobenzyl)-1-methyl-7-oxo-4,5,6,7-tetrahydro-1H-pyrazolo[3,4-c]pyridine-3-carboxamide]
IC50 [1, 3]: 10 nM
EC50 [2]: 84 nM

Cn1nc(C(=O)NCc2ccc(Cl)cc2)c2c1C(=O)N(CC1(S(=O)(=O)C(C)(C)COCCO)CC1)CC2 [Example 88, N-(4-Chlorobenzyl)-6-((1-((1-(2-hydroxyethoxy)-2-methylpropan-2-yl)sulfonyl)cyclopropyl)methyl)-1-methyl-7-oxo-4,5,6,7-tetrahydro-1H-pyrazolo[3,4-c]pyridine-3-carboxamide]
IC50 [1, 4]: 2 nM
EC50 [2]: 36 nM

Cn1nc(C(=O)COc2ccc(C#N)cc2)c2c1C(=O)N(CC1(S(=O)(=O)C3CC3)CC1)CC2 [Example 25, 4-(2-(6-((1-(Cyclopropylsulfonyl)cyclopropyl)methyl)-1-methyl-7-oxo-4,5,6,7-tetrahydro-1H-pyrazolo[3,4-c]pyridin-3-yl)-2-oxoethoxy)benzonitrile]
IC50 [1, 4]: 2 nM
EC50 [2]: 30 nM

CS(=O)(=O)C1(CN2CCc3c(nn4c3C(=O)N(Cc3ccc(C#N)cc3)CC4)C2=O)CC1 [Example 46, 4-((8-((1-(Methylsulfonyl)cyclopropyl)methyl)-1,7-dioxo-3,4,7,8,9,10-hexahydropyrido[3′,4′:3,4]pyrazolo[1,5-a]pyrazin-2(1H)-yl)methyl)benzonitrile]
IC50 [1, 4]: 41 nM
EC50 [2]: 746 nM

Cn1nc(C(=O)NCc2ccc(Cl)cc2)c2c1C(=O)N(CC1(S(N)(=O)=O)CC1)CC2 [Example 121, N-(4-chlorobenzyl)-1-methyl-7-oxo-6-((1-sulfamoylcyclopropyl)methyl)-4,5,6,7-tetrahydro-1H-pyrazolo[3,4-c]pyridine-3-carboxamide]
IC50 [1, 4]: 8 nM
EC50 [2]: 156 nM

Cc1ncccc1NS(=O)(=O)C1(CN2CCc3c(C(=O)NCc4ccc(C#N)cc4)nn(C)c3C2=O)CC1 [Example 161, N-(4-Cyanobenzyl)-1-methyl-6-((1-(N-(2-methylpyridin-3-yl)sulfamoyl)cyclopropyl)methyl)-7-oxo-4,5,6,7-tetrahydro-1H-pyrazolo[3,4-c]pyridine-3-carboxamide]
IC50 [1, 3]: 2 nM
EC50 [2]: 61 nM

Cn1nc(C(=O)NCc2ccc(F)cc2)c2c1C(=O)N(CC1(S(=O)(=O)C3CC3)CC1)CC2 [Example 5, 6-((1-(Cyclopropylsulfonyl)cyclopropyl)methyl)-N-(4-fluorobenzyl)-1-methyl-7-oxo-4,5,6,7-tetrahydro-1H-pyrazolo[3,4-c]pyridine-3-carboxamide]
IC50 [1, 3]: 30 nM
EC50 [2]: 284 nM

CC1(S(=O)(=O)C2(CN3CCc4c(C(=O)NCc5ccc(C#N)cc5)nn(CCCO)c4C3=O)CC2)CC1 [Example 237, N-(4-Cyanobenzyl)-1-(3-hydroxypropyl)-6-((1-((1-methylcyclopropyl)sulfonyl)cyclopropyl)methyl)-7-oxo-4,5,6,7-tetrahydro-1H-pyrazolo[3,4-c]pyridine-3-carboxamide]
IC50 [1, 3]: 2 nM
EC50 [2]: 38 nM

Cn1nc(C(=O)NCc2ccc(Cl)cc2)c2c1C(=O)N(CC1(S(=O)(=O)C(F)F)CC1)CC2 [Example 39, N-(4-Chlorobenzyl)-6-((1-((difluoromethyl)sulfonyl)cyclopropyl)methyl)-1-methyl-7-oxo-4,5,6,7-tetrahydro-1H-pyrazolo[3,4-c]pyridine-3-carboxamide]
IC50 [1, 4]: 25 nM
EC50 [2]: 376 nM

CN(CCO)S(=O)(=O)C1(CN2CCc3c(C(=O)NCc4ccc(C#N)cc4)nn(C)c3C2=O)CC1 [Example 146, N-(4-Cyanobenzyl)-6-((1-(N-(2-hydroxyethyl)-N-methylsulfamoyl)cyclopropyl)methyl)-1-methyl-7-oxo-4,5,6,7-tetrahydro-1H-pyrazolo[3,4-c]pyridine-3-carboxamide]
IC50 [1, 3]: 3 nM
EC50 [2]: 61 nM

Cn1nc(C(=O)NCc2ccc(F)cc2)c2c1C(=O)N(CC1(S(=O)(=O)C(C)(C)CO)CC1)CC2 [Example 53, N-(4-Fluorobenzyl)-6-((1-((1-hydroxy-2-methylpropan-2-yl)sulfonyl)cyclopropyl)methyl)-1-methyl-7-oxo-4,5,6,7-tetrahydro-1H-pyrazolo[3,4-c]pyridine-3-carboxamide]
IC50 [1, 3]: 7 nM
EC50 [2]: 141 nM

N#Cc1ccc(CNC(=O)c2nn(CC3(CO)CC3)c3c2CCN(CC2(S(=O)(=O)C4CC4)CC2)C3=O)cc1 [Example 47, N-(4-Cyanobenzyl)-6-((1-(cyclopropylsulfonyl)cyclopropyl)methyl)-1-((1-(hydroxymethyl)cyclopropyl)methyl)-7-oxo-4,5,6,7-tetrahydro-1H-pyrazolo[3,4-c]pyridine-3-carboxamide]
IC50 [1, 4]: 2 nM
EC50 [2]: 42 nM

Cn1nc(C(=O)NCc2ccc(C#N)cc2)c2c1C(=O)N(CC1(S(=O)(=O)NC3COC3)CC1)CC2 [Example 132, N-(4-Cyanobenzyl)-1-methyl-6-((1-(N-(oxetan-3-yl)sulfamoyl)cyclopropyl)methyl)-7-oxo-4,5,6,7-tetrahydro-1H-pyrazolo[3,4-c]pyridine-3-carboxamide]
IC50 [1, 3]: 20 nM
EC50 [2]: 289 nM

CN(C(CO)CO)S(=O)(=O)C1(CN2CCc3c(C(=O)NCc4ccc(C#N)cc4)nn(C)c3C2=O)CC1 [Example 147, N-(4-Cyanobenzyl)-6-((1-(N-(1,3-dihydroxypropan-2-yl)-N-methylsulfamoyl)cyclopropyl)methyl)-1-methyl-7-oxo-4,5,6,7-tetrahydro-1H-pyrazolo[3,4-c]pyridine-3-carboxamide]
IC50 [1, 3]: 30 nM
EC50 [2]: 604 nM

Cc1cc(C#N)ccc1CNC(=O)c1nn(C)c2c1CCN(CC1(S(=O)(=O)C3CC3)CC1)C2=O [Example 12, N-(4-Cyano-2-methylbenzyl)-6-((1-(cyclopropylsulfonyl)cyclopropyl)methyl)-1-methyl-7-oxo-4,5,6,7-tetrahydro-1H-pyrazolo[3,4-c]pyridine-3-carboxamide]
IC50 [1, 3]: 2 nM
EC50 [2]: 87 nM

COc1ncccc1NS(=O)(=O)C1(CN2CCc3c(C(=O)NCc4ccc(C#N)cc4)nn(C)c3C2=O)CC1 [Example 162, N-(4-Cyanobenzyl)-6-((1-(N-(2-methoxypyridin-3-yl)sulfamoyl)cyclopropyl)methyl)-1-methyl-7-oxo-4,5,6,7-tetrahydro-1H-pyrazolo[3,4-c]pyridine-3-carboxamide]
IC50 [1, 3]: 1 nM
EC50 [2]: 30 nM

Cn1nc(C(=O)NCc2ccc(C#N)c(F)c2)c2c1C(=O)N(CC1(S(C)(=O)=O)CC1)CC2 [Example 23, N-(4-Cyano-3-fluorobenzyl)-1-methyl-6-((1-(methylsulfonyl)cyclopropyl)methyl)-7-oxo-4,5,6,7-tetrahydro-1H-pyrazolo[3,4-c]pyridine-3-carboxamide]
IC50 [1, 3]: 7 nM
EC50 [2]: 86 nM

COCC(C)(COC)S(=O)(=O)C1(CN2CCc3c(C(=O)NCc4ccc(C#N)cc4)nn(C)c3C2=O)CC1 [Example 179, N-(4-Cyanobenzyl)-6-((1-((1,3-dimethoxy-2-methylpropan-2-yl)sulfonyl)cyclopropyl)methyl)-1-methyl-7-oxo-4,5,6,7-tetrahydro-1H-pyrazolo[3,4-c]pyridine-3-carboxamide]
IC50 [1, 3]: 2 nM
EC50 [2]: 49 nM

Cn1nc(C(=O)NCc2ccc(Cl)s2)c2c1C(=O)N(CC1(S(=O)(=O)C3CC3)CC1)CC2 [Example 10, N-((5-Chlorothiophen-2-yl)methyl)-6-((1-(cyclopropylsulfonyl)cyclopropyl)methyl)-1-methyl-7-oxo-4,5,6,7-tetrahydro-1H-pyrazolo[3,4-c]pyridine-3-carboxamide]
IC50 [1, 3]: 26 nM
EC50 [2]: 259 nM

Cn1nc(C(=O)N[C@@H](CO)c2ccc(Cl)cc2)c2c1C(=O)N(CC1(S(=O)(=O)C3CC3)CC1)CC2 [Example 18, (R)-N-(1-(4-Chlorophenyl)-2-hydroxyethyl)-6-((1-(cyclopropylsulfonyl)cyclopropyl)methyl)-1-methyl-7-oxo-4,5,6,7-tetrahydro-1H-pyrazolo[3,4-c]pyridine-3-carboxamide]
IC50 [1, 3]: 22 nM
EC50 [2]: 301 nM

Cn1nc(C(=O)NCc2ccc(C#N)cc2)c2c1C(=O)N(CC1(S(=O)(=O)C(C)(C)CN3CCC(O)C3)CC1)CC2 (stereo not drawn) [Example 68, N-(4-Cyanobenzyl)-6-((1-((1-(3-hydroxypyrrolidin-1-yl)-2-methylpropan-2-yl)sulfonyl)cyclopropyl)methyl)-1-methyl-7-oxo-4,5,6,7-tetrahydro-1H-pyrazolo[3,4-c]pyridine-3-carboxamide]
IC50 [1, 3]: 1 nM
EC50 [2]: 115 nM

Cn1nc(C(=O)NCc2ccc(C#N)cc2F)c2c1C(=O)N(CC1(S(=O)(=O)C3CC3)CC1)CC2 [Example 13, N-(4-Cyano-2-fluorobenzyl)-6-((1-(cyclopropylsulfonyl)cyclopropyl)methyl)-1-methyl-7-oxo-4,5,6,7-tetrahydro-1H-pyrazolo[3,4-c]pyridine-3-carboxamide]
IC50 [1, 3]: 6 nM
EC50 [2]: 102 nM

CCS(=O)(=O)C1(CN2CCc3c(C(=O)NCc4ccc(C#N)cc4)nn(CC(C)(C)O)c3C2=O)CC1 [Example 233, N-(4-Cyanobenzyl)-6-((1-(ethylsulfonyl)cyclopropyl)methyl)-1-(2-hydroxy-2-methylpropyl)-7-oxo-4,5,6,7-tetrahydro-1H-pyrazolo[3,4-c]pyridine-3-carboxamide]
IC50 [1, 3]: 2 nM
EC50 [2]: 96 nM
